Read-outs that look alike come from different tables or passages of the source.
Legend:
recombinant NL4-3 virus = assay: HIV cell culture assay (antiviral activity, luciferase readout in MT-2 cells); format: cell-based; settings: Human immunodeficiency virus 1, NL43, MT2
Outline: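 MT-2 cells infected for 4-5 days with NL4-3 reference virus carrying Renilla luciferase in place of part of nef, in presence of serial compound dilutions. Luciferase activity read with live-cell substrate. EC50 derived from median effect equation, slope parameter m.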

[1] = Compound cytotoxicity, XTT-based colorimetric assay; format: cell-based; settings: human
Outline: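 Run under the antiviral-assay protocol but without virus. Viability was read on day 4 and CC50 values were derived from the readout.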

[2] = uninfected MT2 cells, day 4, XTT, read-out: CC50

Row | SMILES | EC50 (recombinant NL4-3 virus) [nM] | CC50 at 4 days [1, 2] [nM] | CC50 at 4 days [1] [nM]
1 | C[C@@H]1CN(c2ccc3c(=O)n(-c4ccc(Cl)c5c(NS(=O)(=O)C6CC6)nn(CC(F)F)c45)c([C@H](Cc4cc(F)cc(F)c4)NC(=O)Cn4nc(C(F)F)c5c4C(F)(F)[C@@H]4C[C@H]54)nc3c2)C[C@H](C)O1 (atropisomer, axis not shown; (P)) [Example 10, N—((S)-1-((3P)-3-(4-chloro-3-(cyclopropanesulfonamido)-1-(2,2-difluoroethyl)-1H-indazol-7-yl)-7-((2S,6R)-2,6-dimethylmorpholino)-4-oxo-3,4-dihydroquinazolin-2-yl)-2-(3,5-difluorophenyl)ethyl)-2-((3bS,4aR)-3-(difluoromethyl)-5,5-difluoro-3b,4,4a,5-tetrahydro-1H-cyclopropa[3,4]cyclopenta[1,2-c]pyrazol-1-yl)acetamide] | 0.072 | > 500 | –
2 | C[C@@H]1CN(c2ccc3c(=O)n(-c4ccc(Cl)c5c(NS(C)(=O)=O)nn(C)c45)c([C@H](Cc4cc(F)cc(F)c4)NC(=O)Cc4cn(C5CC5)c5ccccc45)nc3c2)C[C@H](C)O1 (atropisomer, axis not shown; (P)) [Example 53, N—((S)-1-((3P)-3-(4-chloro-1-methyl-3-(methylsulfonamido)-1H-indazol-7-yl)-7-((2S,6R)-2,6-dimethylmorpholino)-4-oxo-3,4-dihydroquinazolin-2-yl)-2-(3,5-difluorophenyl)ethyl)-2-(1-cyclopropyl-1H-indol-3-yl)acetamide] | 0.81 | > 500 | –
3 | CCCS(=O)(=O)Nc1nn(C)c2c(-n3c([C@H](Cc4cc(F)cc(F)c4)NC(=O)Cn4nc(C(F)F)c5c4C(F)(F)[C@@H]4C[C@H]54)nc4cc(N5CCOCC5)ccc4c3=O)ccc(Cl)c12 (atropisomer, axis not shown; (P)) [Example 66, N—((S)-1-((3P)-3-(4-chloro-1-methyl-3-(propylsulfonamido)-1H-indazol-7-yl)-7-morpholino-4-oxo-3,4-dihydroquinazolin-2-yl)-2-(3,5-difluorophenyl)ethyl)-2-((3bS,4aR)-3-(difluoromethyl)-5,5-difluoro-3b,4,4a,5-tetrahydro-1H-cyclopropa[3,4]cyclopenta[1,2-c]pyrazol-1-yl)acetamide] | 0.066 | > 500 | –
4 | Cn1nc(NS(C)(=O)=O)c2c(Cl)ccc(-n3c([C@H](Cc4cc(F)cc(F)c4)NC(=O)Cn4nc(C(F)F)c5c4C(F)(F)[C@@H]4C[C@H]54)nc4cc(NCc5ccccc5)ccc4c3=O)c21 (atropisomer, axis not shown; (P)) [Example 20, N—((S)-1-(7-(benzylamino)-(3P)-3-(4-chloro-1-methyl-3-(methylsulfonamido)-1H-indazol-7-yl)-4-oxo-3,4-dihydroquinazolin-2-yl)-2-(3,5-difluorophenyl)ethyl)-2-((3bS,4aR)-3-(difluoromethyl)-5,5-difluoro-3b,4,4a,5-tetrahydro-1H-cyclopropa[3,4]cyclopenta[1,2-c]pyrazol-1-yl)acetamide] | 0.38 | > 1000 | –
5 | COC1CCCN(c2ccc3c(=O)n(-c4ccc(Cl)c5c(NS(C)(=O)=O)nn(C)c45)c([C@H](Cc4cc(F)cc(F)c4)NC(=O)Cn4nc(C(F)F)c5c4C(F)(F)[C@@H]4C[C@H]54)nc3c2)C1 (stereo partly drawn) [Example 29, N-((1S)-1-((3P)-3-(4-chloro-1-methyl-3-(methylsulfonamido)-1H-indazol-7-yl)-7-(3-methoxypiperidin-1-yl)-4-oxo-3,4-dihydroquinazolin-2-yl)-2-(3,5-difluorophenyl)ethyl)-2-((3bS,4aR)-3-(difluoromethyl)-5,5-difluoro-3b,4,4a,5-tetrahydro-1H-cyclopropa[3,4]cyclopenta[1,2-c]pyrazol-1-yl)acetamide] | 0.052 | > 500 | –
6 | Cn1nc(NS(C)(=O)=O)c2c(Cl)ccc(-n3c([C@H](Cc4cc(F)cc(F)c4)NC(=O)Cn4nc(C(F)F)c5c4C(F)(F)[C@@H]4C[C@H]54)nc4cc(N5C6CCC5COC6)ccc4c3=O)c21 [Example 64, N—((S)-1-(7-((1R,5S)-3-oxa-8-azabicyclo[3.2.1]octan-8-yl)-(3P)-3-(4-chloro-1-methyl-3-(methylsulfonamido)-1H-indazol-7-yl)-4-oxo-3,4-dihydroquinazolin-2-yl)-2-(3,5-difluorophenyl)ethyl)-2-((3bS,4aR)-3-(difluoromethyl)-5,5-difluoro-3b,4,4a,5-tetrahydro-1H-cyclopropa[3,4]cyclopenta[1,2-c]pyrazol-1-yl)acetamide] | 0.037 | – | > 500
7 | Cn1nc(NS(C)(=O)=O)c2c(Cl)ccc(-n3c([C@H](Cc4cc(F)cc(F)c4)NC(=O)Cn4nc(C(F)F)c5c4C(F)(F)[C@@H]4C[C@H]54)nc4cc(N5CCC6(CC5)COC6)ccc4c3=O)c21 (atropisomer, axis not shown; (P)) [Example 25, N—((S)-1-((3P)-3-(4-chloro-1-methyl-3-(methylsulfonamido)-1H-indazol-7-yl)-4-oxo-7-(2-oxa-7-azaspiro[3.5]nonan-7-yl)-3,4-dihydroquinazolin-2-yl)-2-(3,5-difluorophenyl)ethyl)-2-((3bS,4aR)-3-(difluoromethyl)-5,5-difluoro-3b,4,4a,5-tetrahydro-1H-cyclopropa[3,4]cyclopenta[1,2-c]pyrazol-1-yl)acetamide] | 0.095 | > 500 | –
8 | Cn1nc(NS(C)(=O)=O)c2c(Cl)ccc(-n3c([C@H](Cc4cc(F)cc(F)c4)NC(=O)Cn4nc(C(F)F)c5c4C(F)(F)[C@@H]4C[C@H]54)nc4cc(N5CCOC(C)(C)C5)ccc4c3=O)c21 (atropisomer, axis not shown; (P)) [Example 4, N—((S)-1-((3P)-3-(4-chloro-1-methyl-3-(methylsulfonamido)-1H-indazol-7-yl)-7-(2,2-dimethylmorpholino)-4-oxo-3,4-dihydroquinazolin-2-yl)-2-(3,5-difluorophenyl)ethyl)-2-((3bS,4aR)-3-(difluoromethyl)-5,5-difluoro-3b,4,4a,5-tetrahydro-1H-cyclopropa[3,4]cyclopenta[1,2-c]pyrazol-1-yl)acetamide] | 0.063 | > 500 | –
9 | CO[C@@H]1CCN(c2ccc3c(=O)n(-c4ccc(Cl)c5c(NS(C)(=O)=O)nn(C)c45)c([C@H](Cc4cc(F)cc(F)c4)NC(=O)Cn4nc(C(F)F)c5c4C(F)(F)[C@@H]4C[C@H]54)nc3c2)C1 (atropisomer, axis not shown; (P)) [Example 5, N—((S)-1-((3P)-3-(4-chloro-1-methyl-3-(methylsulfonamido)-1H-indazol-7-yl)-7-((R)-3-methoxypyrrolidin-1-yl)-4-oxo-3,4-dihydroquinazolin-2-yl)-2-(3,5-difluorophenyl)ethyl)-2-((3bS,4aR)-3-(difluoromethyl)-5,5-difluoro-3b,4,4a,5-tetrahydro-1H-cyclopropa[3,4]cyclopenta[1,2-c]pyrazol-1-yl)acetamide] | 0.05 | > 500 | –
10 | Cn1nc(NS(C)(=O)=O)c2c(Cl)ccc(-n3c([C@H](Cc4cc(F)cc(F)c4)NC(=O)Cn4nc(C(F)F)c5c4C(F)(F)[C@@H]4C[C@H]54)nc4cc(N5CCOCC5)ccc4c3=O)c21 (atropisomer, axis not shown; (P)) [Example 12, N—((S)-1-((3P)-3-(4-chloro-1-methyl-3-(methylsulfonamido)-1H-indazol-7-yl)-7-morpholino-4-oxo-3,4-dihydroquinazolin-2-yl)-2-(3,5-difluorophenyl)ethyl)-2-((3bS,4aR)-3-(difluoromethyl)-5,5-difluoro-3b,4,4a,5-tetrahydro-1H-cyclopropa[3,4]cyclopenta[1,2-c]pyrazol-1-yl)acetamide] | 0.035 | > 1000 | –
11 | C[C@@H]1CN(c2ccc3c(=O)n(-c4ccc(Cl)c5c(NS(C)(=O)=O)nn(CC(F)(F)F)c45)c([C@H](Cc4cc(F)cc(F)c4)NC(=O)Cn4nc(C(F)F)cc4C4CC4)nc3c2)C[C@H](C)O1 (atropisomer, axis not shown; (P)) [Example 59, N—((S)-1-((3P)-3-(4-chloro-3-(methylsulfonamido)-1-(2,2,2-trifluoroethyl)-1H-indazol-7-yl)-7-((2S,6R)-2,6-dimethylmorpholino)-4-oxo-3,4-dihydroquinazolin-2-yl)-2-(3,5-difluorophenyl)ethyl)-2-(5-cyclopropyl-3-(difluoromethyl)-1H-pyrazol-1-yl)acetamide] | 0.42 | > 500 | –
12 | Cn1nc(NS(C)(=O)=O)c2c(Cl)ccc(-n3c([C@H](Cc4cc(F)cc(F)c4)NC(=O)Cn4nc(C(F)F)c5c4C(F)(F)[C@@H]4C[C@H]54)nc4cc(N5CCC6(CCC6)CC5)ccc4c3=O)c21 (atropisomer, axis not shown; (P)) [Example 34, N—((S)-1-((3P)-3-(4-chloro-1-methyl-3-(methylsulfonamido)-1H-indazol-7-yl)-4-oxo-7-(7-azaspiro[3.5]nonan-7-yl)-3,4-dihydroquinazolin-2-yl)-2-(3,5-difluorophenyl)ethyl)-2-((3bS,4aR)-3-(difluoromethyl)-5,5-difluoro-3b,4,4a,5-tetrahydro-1H-cyclopropa[3,4]cyclopenta[1,2-c]pyrazol-1-yl)acetamide] | 2.81 | > 1000 | –
13 | C[C@@H]1CN(c2ccc3c(=O)n(-c4ccc(Cl)c5c(NS(C)(=O)=O)nn(C)c45)c([C@H](Cc4cc(F)cc(F)c4)NC(=O)Cn4nc(C(F)(F)F)c5c4C(F)(F)[C@@H]4C[C@H]54)nc3c2)C[C@H](C)O1 (atropisomer, axis not shown; (P)) [Example 54, N—((S)-1-((3P)-3-(4-chloro-1-methyl-3-(methylsulfonamido)-1H-indazol-7-yl)-7-((2S,6R)-2,6-dimethylmorpholino)-4-oxo-3,4-dihydroquinazolin-2-yl)-2-(3,5-difluorophenyl)ethyl)-2-((3bS,4aR)-5,5-difluoro-3-(trifluoromethyl)-3b,4,4a,5-tetrahydro-1H-cyclopropa[3,4]cyclopenta[1,2-c]pyrazol-1-yl)acetamide] | 0.073 | > 500 | –
